Assay results published in paper PMC8875074, “Development of Bactericidal Peptides against Multidrug-Resistant Acinetobacter baumannii with Enhanced Stability and Low Toxicity” (International Journal of Molecular Sciences, 2022).
Read-outs that look alike come from different tables or passages of the source.

Experiments:
MDR A. baumannii 2982 [1] = experiment: MIC/MBC antimicrobial assay; type: cell-based; conditions: Acinetobacter baumannii; MDR strain 2982; normal media; triplicate, two independent experiments
Method: (§1) Bacterial cells Acinetobacter baumannii 10591 and 14B0091 were obtained from BCRC Taiwan. All the MDR strains were obtained from the hospital as gifts. The antimicrobial assay was performed as per the standard protocol; 50 µL of 10^6 CFU/mL of mid-log phase bacterial suspension was treated with 50 µL of candidate peptide and meropenem (Sigma: PHR1772) incubated at 37 °C for 960~1200 min. The clear wells corresponding to the lowest concentrations are reported as the minimum inhibitory concentration (MIC). Suspensions from the clear wells were plated on Mueller–Hinton agar (MHA) plates and incubated at 37 °C overnight. The lowest concentration corresponding to no growth was recorded as the minimum bactericidal concentration (MBC). To detect the effect of human serum (H3667, Sigma Aldrich, St. Louis, MO, USA) on the peptides, the media was replaced with 50% human serum-containing media. Similarly, to detect the effect of lung surfactant (SURVANTA®, beractant, AbbVie Inc., Lake Bluff, IL, USA (25 mg/mL)) on the antimicrobial activity of the peptide, the normal media was replaced with 5% lung surfactant-containing media. To analyse the bacterial killing kinetics, after the addition of the peptide to the bacterial suspension, 10 µL of broth was diluted 1000 times, plated at 30 min intervals, and allowed to incubate for 90 min. The bacterial load is expressed as CFU/mL as a function of time.

MDR A. baumannii 921 [2] = experiment: MIC/MBC antimicrobial assay; type: cell-based; conditions: Acinetobacter baumannii; MDR strain 921; normal media; triplicate, two independent experiments
Method: as §1

MDR A. baumannii 2088 [3] = experiment: MIC/MBC antimicrobial assay; type: cell-based; conditions: Acinetobacter baumannii; MDR strain 2088; normal media; triplicate, two independent experiments
Method: as §1

MDR A. baumannii 2998 [4] = experiment: MIC/MBC antimicrobial assay; type: cell-based; conditions: Acinetobacter baumannii; MDR strain 2998; normal media; triplicate, two independent experiments
Method: as §1

MDR A. baumannii 1607 [5] = experiment: MIC/MBC antimicrobial assay; type: cell-based; conditions: Acinetobacter baumannii; MDR strain 1607; normal media; triplicate, two independent experiments
Method: as §1

MDR A. baumannii 2997 [6] = experiment: MIC/MBC antimicrobial assay; type: cell-based; conditions: Acinetobacter baumannii; MDR strain 2997; normal media; triplicate, two independent experiments
Method: as §1

MDR A. baumannii 2962 [7] = experiment: MIC/MBC antimicrobial assay; type: cell-based; conditions: Acinetobacter baumannii; MDR strain 2962; normal media; triplicate, two independent experiments
Method: as §1

MDR A. baumannii 3618 [8] = experiment: MIC/MBC antimicrobial assay; type: cell-based; conditions: Acinetobacter baumannii; MDR strain 3618; normal media; triplicate, two independent experiments
Method: as §1

MDR A. baumannii 1033 [9] = experiment: MIC/MBC antimicrobial assay; type: cell-based; conditions: Acinetobacter baumannii; MDR strain 1033; normal media; triplicate, two independent experiments
Method: as §1

MDR A. baumannii 1019 [10] = experiment: MIC/MBC antimicrobial assay; type: cell-based; conditions: Acinetobacter baumannii; MDR strain 1019; normal media; triplicate, two independent experiments
Method: as §1

MDR A. baumannii 1702 [11] = experiment: MIC/MBC antimicrobial assay; type: cell-based; conditions: Acinetobacter baumannii; MDR strain 1702; normal media; triplicate, two independent experiments
Method: as §1

MDR A. baumannii 14B0091 = experiment: MIC/MBC antimicrobial assay; type: cell-based, Acinetobacter baumannii; conditions: MDR strain 14B0091, triplicate, two independent experiments
Method: as §1

A. baumannii 10591 [12] = experiment: MIC/MBC antimicrobial assay; type: cell-based, Acinetobacter baumannii; conditions: for MBC: A. baumannii 10591 wild strain, triplicate, two independent experiments
Method: as §1

MDR A. baumannii 2982 [13] = experiment: Fractional inhibitory concentration (FIC) index assay; type: cell-based, Acinetobacter baumannii; conditions: strain 2982
Method: (§2) A 2-fold dilution of peptide in 50 µL of media was performed along the vertical axis of a 96-well plate. Similarly, 50 µL of the next drug was diluted 2-fold along the horizontal axis. Next, 50 µL of […] was added, and the standard MIC protocol was performed. The FIC index was calculated according to the following formula:FICI = FIC A + FIC B where FIC A is MIC A & B combined/MIC A and FIC B is MIC A & B combined/[…].

MDR A. baumannii 921 [14] = experiment: as above; type: cell-based, Acinetobacter baumannii; conditions: strain 921
Method: as §2

MDR A. baumannii 2088 [15] = experiment: as above; type: cell-based, Acinetobacter baumannii; conditions: strain 2088
Method: as §2

MDR A. baumannii 2998 [16] = experiment: as above; type: cell-based, Acinetobacter baumannii; conditions: strain 2998
Method: as §2

MDR A. baumannii 1607 [17] = experiment: as above; type: cell-based, Acinetobacter baumannii; conditions: strain 1607
Method: as §2

MDR A. baumannii 2997 [18] = experiment: as above; type: cell-based, Acinetobacter baumannii; conditions: strain 2997
Method: as §2

MDR A. baumannii 14B001 = experiment: as above; type: cell-based, Acinetobacter baumannii; conditions: strain 14B001
Method: as §2

MDR A. baumannii 2962 [19] = experiment: as above; type: cell-based, Acinetobacter baumannii; conditions: strain 2962
Method: as §2

MDR A. baumannii 3618 [20] = experiment: as above; type: cell-based, Acinetobacter baumannii; conditions: strain 3618
Method: as §2

MDR A. baumannii 1033 [21] = experiment: as above; type: cell-based, Acinetobacter baumannii; conditions: strain 1033
Method: as §2

MDR A. baumannii 1019 [22] = experiment: as above; type: cell-based, Acinetobacter baumannii; conditions: strain 1019
Method: as §2

MDR A. baumannii 1702 [23] = experiment: as above; type: cell-based, Acinetobacter baumannii; conditions: strain 1702
Method: as §2

A. baumannii 10591 [24] = experiment: Biofilm rupture assay; type: cell-based, Acinetobacter baumannii; conditions: at the lowest concentration (25 µg/mL)
Method: For the biofilm inhibition assay, 106 bacterial cells were treated with peptide at various concentrations in MHB media containing 0.2% glucose for 24 h at 37 °C in 96-well plates. The wells were then washed with PBS, treated with 100% methanol for 15 min, and the washes were discarded. Crystal violet solution (0.02%) was added to the dry plates and incubated for 30 min. The wells were then washed and treated with 33% acetic acid, followed by detection at 595 nm. For the biofilm rupture assay, 106 bacterial cells were grown overnight. The residual liquid was discarded, followed by washing with PBS. Next, 100 µL of peptide at different concentrations was added as estimated according to the biofilm inhibition assay.

A. baumannii (10591) = experiment: Induced resistance (serial passage) assay; type: cell-based, Acinetobacter baumannii; conditions: 15 cycles, from subinhibitory wells
Method: A total of 50 µL of 10^6 CFU/mL bacterial cells were treated with different concentrations of peptide. Bacterial cells from subinhibitory wells were subcultured by passaging for 15 cycles, followed by testing their MIC values. The fold change in MIC was reported in comparison with starting MIC values.

A. baumannii = experiment: Peptide sensitivity to temperature (MIC/MBC after heating); type: cell-based, Acinetobacter baumannii
Method: as §1
Here, 50 µL of 10^6 CFU/mL bacterial cells were treated with peptide previously incubated at 40, 60, 80, and 100 °C for 1 h. The peptide activity was reported as per the standard MIC and MBC protocols.

[25] = cited from earlier work
Excerpt: A pair of test peptides, TP2-5 and TP2-6, were selected from a previous design based on tilapia piscidin 2 (TP2). […] Both TP2-5 and TP2-6 are nonhaemolytic and noncytotoxic an ...

[26] = Acinetobacter baumannii, media containing 50% human serum, read-out: MBC
[27] = Acinetobacter baumannii, drug alone, two experiments in triplicate

C[C@@H](O)[C@H]1C(=O)N2C(C(=O)O)=C(S[C@@H]3CN[C@H](C(=O)N(C)C)C3)[C@H](C)[C@H]12 [Meropenem, meropenem]
>100 µg/mL: MBC (MDR A. baumannii 14B0091; normal media) | MIC (MDR A. baumannii 14B0091; normal media)
200 µg/mL: MIC (MDR A. baumannii 2088 [15]; [27]) | MIC (MDR A. baumannii 2998 [16]; [27]) | MIC in Combination (MDR A. baumannii 2998 [16]; TP2-5 combined with meropenem) | MIC in Combination (MDR A. baumannii 14B001; TP2-5 combined with meropenem) | MIC in Combination (MDR A. baumannii 14B001; TP2-6 combined with meropenem)
nonsignificant biofilm rupture: biofilm rupture (A. baumannii 10591 [24])
400 µg/mL: MIC (MDR A. baumannii 14B001; [27])
up to 16 fold: increase in MIC versus the initial MIC value (fold) (A. baumannii (10591))
1.56 µg/mL: MBC (A. baumannii 10591 [12]; media containing 5% lung surfactant) | MIC (A. baumannii 10591 [12]; Acinetobacter baumannii, 10591) | MBC (A. baumannii 10591 [12]; [26]) | MIC in Combination (MDR A. baumannii 1702 [23]; TP2-6 combined with meropenem) | MIC (A. baumannii; Acinetobacter baumannii) | MBC (A. baumannii; Acinetobacter baumannii, agent incubated at 40 °C for 1 h prior to the assay, triplicate, two experiments) | MBC (A. baumannii; Acinetobacter baumannii, agent incubated at 60 °C for 1 h prior to the assay, triplicate, two experiments) | MIC (A. baumannii; agent incubated at 60 °C for 1 h prior to the assay, triplicate, two experiments)
25 µg/mL: MBC (MDR A. baumannii 1019 [10]) | MIC (MDR A. baumannii 1019 [10]) | MIC (MDR A. baumannii 1607 [17]; [27]) | MIC in Combination (MDR A. baumannii 1607 [17]; TP2-5 combined with meropenem) | MIC in Combination (MDR A. baumannii 1607 [17]; TP2-6 combined with meropenem) | MIC in Combination (MDR A. baumannii 2997 [18]; TP2-6 combined with meropenem, second printed pair of the cells (after the slash)) | MIC in Combination (MDR A. baumannii 2962 [19]; TP2-5 combined with meropenem) | MIC in Combination (MDR A. baumannii 2962 [19]; TP2-6 combined with meropenem) | MIC in Combination (MDR A. baumannii 3618 [20]; TP2-6 combined with meropenem) | MIC in Combination (MDR A. baumannii 1033 [21]; TP2-6 combined with meropenem) | MIC (MDR A. baumannii 1019 [22]; [27])
50 to 100 µg/mL: MBC (MDR A. baumannii 2997 [6]) | MIC (MDR A. baumannii 2997 [6]) | MBC (MDR A. baumannii 3618 [8]) | MIC (MDR A. baumannii 3618 [8])
> 100 µg/mL: MBC (MDR A. baumannii 2982 [1]) | MIC (MDR A. baumannii 2982 [1]) | MBC (MDR A. baumannii 921 [2]) | MBC (MDR A. baumannii 2088 [3]) | MIC (MDR A. baumannii 2088 [3]) | MBC (MDR A. baumannii 2998 [4]) | MIC (MDR A. baumannii 2998 [4]) | MBC (MDR A. baumannii 14B0091; [26]) | MIC (MDR A. baumannii 14B0091; Acinetobacter baumannii, media containing 50% human serum, read-out: MIC)
3.12 µg/mL: MBC (A. baumannii; Acinetobacter baumannii, agent incubated at 80 °C for 1 h prior to the assay, triplicate, two experiments) | MIC (A. baumannii; Acinetobacter baumannii, agent incubated at 80 °C for 1 h prior to the assay, triplicate, two experiments, read-out: MIC)
100 µg/mL: MIC (MDR A. baumannii 921 [2]) | MBC (MDR A. baumannii 1033 [9]) | MIC (MDR A. baumannii 2982 [13]; [27]) | MIC in Combination (MDR A. baumannii 2982 [13]; TP2-5 combined with meropenem) | MIC in Combination (MDR A. baumannii 2982 [13]; TP2-6 combined with meropenem) | MIC (MDR A. baumannii 921 [14]; [27]) | MIC in Combination (MDR A. baumannii 921 [14]; TP2-5 combined with meropenem) | MIC in Combination (MDR A. baumannii 2088 [15]; TP2-5 combined with meropenem) | MIC in Combination (MDR A. baumannii 2088 [15]; TP2-6 combined with meropenem) | MIC in Combination (MDR A. baumannii 2998 [16]; TP2-6 combined with meropenem) | MIC (MDR A. baumannii 2997 [18]; [27]) | MIC (MDR A. baumannii 3618 [20]; [27])
50 µg/mL: MBC (MDR A. baumannii 1607 [5]) | MIC (MDR A. baumannii 1607 [5]) | MBC (MDR A. baumannii 2962 [7]) | MIC (MDR A. baumannii 2962 [7]) | MIC (MDR A. baumannii 1033 [9]) | MIC in Combination (MDR A. baumannii 921 [14]; TP2-6 combined with meropenem) | MIC in Combination (MDR A. baumannii 2997 [18]; TP2-5 combined with meropenem) | MIC in Combination (MDR A. baumannii 2997 [18]; TP2-6 combined with meropenem, first printed pair of the cells (before the slash)) | MIC (MDR A. baumannii 2962 [19]; [27]) | MIC in Combination (MDR A. baumannii 3618 [20]; TP2-5 combined with meropenem) | MIC (MDR A. baumannii 1033 [21]; [27]) | MIC in Combination (MDR A. baumannii 1033 [21]; TP2-5 combined with meropenem) | MBC (A. baumannii; Acinetobacter baumannii, agent incubated at 100 °C for 1 h prior to the assay, triplicate, two experiments) | MIC (A. baumannii; Acinetobacter baumannii, agent incubated at 100 °C for 1 h prior to the assay, triplicate, two experiments, read-out: MIC)
12.5 µg/mL: MBC (MDR A. baumannii 1702 [11]) | MIC in Combination (MDR A. baumannii 1019 [22]; TP2-5 combined with meropenem) | MIC in Combination (MDR A. baumannii 1019 [22]; TP2-6 combined with meropenem) | MIC (MDR A. baumannii 1702 [23]; [27]) | MIC in Combination (MDR A. baumannii 1702 [23]; TP2-5 combined with meropenem)

GECIWDAIFHGAKHFLHRLVNP [TP2, tilapia piscidin 2]
without antimicrobial activity: antimicrobial activity [25]
negligible or no net positive charge: net positive charge [25]
